Test results taken from the NIST ThermoML archive (doi:10.1021/je200811n).

Conditions: Hot wire method

C=C(F)C(F)(F)F [2,3,3,3-tetrafluoro-1-propene]
Conditions | thermal conductivity [W/m/K]
332.05 K, 300 kPa, Gas | 0.01662
332.05 K, 1511 kPa, Gas | 0.01807
332.06 K, 821 kPa, Gas | 0.01681
332.12 K, 1388 kPa, Gas | 0.01774
332.13 K, 627 kPa, Gas | 0.01673
332.19 K, 1235 kPa, Gas | 0.01737
332.21 K, 465 kPa, Gas | 0.01667
332.27 K, 1074 kPa, Gas | 0.01714
332.3 K, 974 kPa, Gas | 0.01699
332.31 K, 299 kPa, Gas | 0.01673
332.33 K, 1511 kPa, Gas | 0.01806
332.36 K, 820 kPa, Gas | 0.01686
332.38 K, 202 kPa, Gas | 0.0168
332.41 K, 1386 kPa, Gas | 0.01772
332.46 K, 626 kPa, Gas | 0.01677
332.48 K, 1233 kPa, Gas | 0.01739
332.55 K, 102 kPa, Gas | 0.01703
332.56 K, 463 kPa, Gas | 0.01674
332.58 K, 1073 kPa, Gas | 0.01716
332.62 K, 973 kPa, Gas | 0.01704
332.62 K, 1511 kPa, Gas | 0.01806
332.67 K, 299 kPa, Gas | 0.01675
332.69 K, 819 kPa, Gas | 0.0169
332.71 K, 1385 kPa, Gas | 0.0177
332.75 K, 202 kPa, Gas | 0.01687
332.81 K, 626 kPa, Gas | 0.01677
332.81 K, 1233 kPa, Gas | 0.01741
332.91 K, 1072 kPa, Gas | 0.01718
332.91 K, 1511 kPa, Gas | 0.01803
332.92 K, 461 kPa, Gas | 0.01677
332.95 K, 101 kPa, Gas | 0.01705
332.96 K, 972 kPa, Gas | 0.01706
333.04 K, 299 kPa, Gas | 0.01681
333.04 K, 1384 kPa, Gas | 0.0177
333.05 K, 818 kPa, Gas | 0.01692
333.14 K, 1232 kPa, Gas | 0.01741
333.15 K, 202 kPa, Gas | 0.01686
333.18 K, 625 kPa, Gas | 0.01682
333.26 K, 1071 kPa, Gas | 0.0172
333.3 K, 460 kPa, Gas | 0.01681
333.31 K, 972 kPa, Gas | 0.01708
333.38 K, 101 kPa, Gas | 0.01705
333.41 K, 817 kPa, Gas | 0.01696
333.45 K, 300 kPa, Gas | 0.01686
333.56 K, 624 kPa, Gas | 0.01687
333.57 K, 202 kPa, Gas | 0.01692
333.69 K, 460 kPa, Gas | 0.01685
333.83 K, 102 kPa, Gas | 0.0171
333.87 K, 300 kPa, Gas | 0.01688
334.02 K, 202 kPa, Gas | 0.01695
334.31 K, 102 kPa, Gas | 0.01716
341.28 K, 102 kPa, Gas | 0.01759
341.35 K, 201 kPa, Gas | 0.01779
341.39 K, 303 kPa, Gas | 0.01795
341.45 K, 17165 kPa, Liquid | 0.0645
341.49 K, 102 kPa, Gas | 0.01745
341.52 K, 12122 kPa, Liquid | 0.06134
341.52 K, 21726 kPa, Liquid | 0.06742
341.55 K, 17165 kPa, Liquid | 0.06461
341.56 K, 200 kPa, Gas | 0.01761
341.6 K, 303 kPa, Gas | 0.01775
341.6 K, 8202 kPa, Liquid | 0.05839
341.61 K, 21724 kPa, Liquid | 0.06756
341.62 K, 12120 kPa, Liquid | 0.06114
341.69 K, 5189 kPa, Liquid | 0.05547
341.7 K, 8198 kPa, Liquid | 0.05823
341.73 K, 103 kPa, Gas | 0.01734
341.77 K, 2101 kPa, Liquid | 0.05131
341.79 K, 200 kPa, Gas | 0.0175
341.8 K, 5187 kPa, Liquid | 0.05524
341.8 K, 17162 kPa, Liquid | 0.0647
341.82 K, 302 kPa, Gas | 0.01766
341.85 K, 21720 kPa, Liquid | 0.06741
341.88 K, 12117 kPa, Liquid | 0.06141
341.89 K, 2100 kPa, Liquid | 0.05083
341.92 K, 17160 kPa, Liquid | 0.06488
341.96 K, 103 kPa, Gas | 0.01726
341.96 K, 21718 kPa, Liquid | 0.06759
341.98 K, 8198 kPa, Liquid | 0.05827
342.01 K, 12114 kPa, Liquid | 0.06141
342.02 K, 199 kPa, Gas | 0.01743
342.03 K, 1842 kPa, Gas | 0.01945
342.03 K, 1904 kPa, Gas | 0.01996
342.04 K, 1737 kPa, Gas | 0.0191
342.05 K, 302 kPa, Gas | 0.01758
342.07 K, 1574 kPa, Gas | 0.01854
342.08 K, 5185 kPa, Liquid | 0.0553
342.11 K, 8197 kPa, Liquid | 0.05815
342.16 K, 1405 kPa, Gas | 0.01818
342.17 K, 951 kPa, Gas | 0.01775
342.18 K, 17158 kPa, Liquid | 0.06504
342.19 K, 814 kPa, Gas | 0.0177
342.19 K, 2098 kPa, Liquid | 0.05099
342.21 K, 103 kPa, Gas | 0.01718
342.22 K, 5183 kPa, Liquid | 0.05512
342.22 K, 21716 kPa, Liquid | 0.0677
342.26 K, 605 kPa, Gas | 0.01764
342.27 K, 199 kPa, Gas | 0.01735
342.27 K, 1842 kPa, Gas | 0.01963
342.27 K, 1904 kPa, Gas | 0.01971
342.28 K, 12111 kPa, Liquid | 0.06144
342.29 K, 302 kPa, Gas | 0.0175
342.29 K, 1736 kPa, Gas | 0.01924
342.29 K, 1903 kPa, Gas | 0.01966
342.32 K, 459 kPa, Gas | 0.01763
342.32 K, 17157 kPa, Liquid | 0.06503
342.34 K, 1573 kPa, Gas | 0.01875
342.34 K, 2096 kPa, Liquid | 0.05065
342.36 K, 21715 kPa, Liquid | 0.06785
342.4 K, 8195 kPa, Liquid | 0.05822
342.43 K, 1404 kPa, Gas | 0.01834
342.44 K, 12112 kPa, Liquid | 0.06137
342.47 K, 949 kPa, Gas | 0.01781
342.47 K, 1242 kPa, Gas | 0.01809
342.5 K, 813 kPa, Gas | 0.01767
342.5 K, 1096 kPa, Gas | 0.01796
342.51 K, 1904 kPa, Gas | 0.01989
342.52 K, 1841 kPa, Gas | 0.01962
342.52 K, 1904 kPa, Gas | 0.01982
342.52 K, 5181 kPa, Liquid | 0.05511
342.54 K, 939 kPa, Gas | 0.01779
342.55 K, 1735 kPa, Gas | 0.01923
342.56 K, 303 kPa, Gas | 0.01766
342.56 K, 8193 kPa, Liquid | 0.05802
342.6 K, 17155 kPa, Liquid | 0.06501
342.61 K, 1572 kPa, Gas | 0.01878
342.63 K, 201 kPa, Gas | 0.01782
342.63 K, 21712 kPa, Liquid | 0.06777
342.66 K, 458 kPa, Gas | 0.01768
342.66 K, 2094 kPa, Liquid | 0.05079
342.69 K, 5181 kPa, Liquid | 0.05482
342.72 K, 1403 kPa, Gas | 0.01842
342.73 K, 12110 kPa, Liquid | 0.06135
342.75 K, 102 kPa, Gas | 0.01803
342.77 K, 1903 kPa, Gas | 0.01985
342.77 K, 17154 kPa, Liquid | 0.06488
342.78 K, 1241 kPa, Gas | 0.01818
342.78 K, 1841 kPa, Gas | 0.01962
342.79 K, 948 kPa, Gas | 0.01785
342.79 K, 1904 kPa, Gas | 0.01984
342.79 K, 21708 kPa, Liquid | 0.06775
342.82 K, 1095 kPa, Gas | 0.01798
342.83 K, 812 kPa, Gas | 0.01775
342.83 K, 1734 kPa, Gas | 0.01925
342.86 K, 939 kPa, Gas | 0.01784
342.86 K, 8191 kPa, Liquid | 0.05808
342.89 K, 1571 kPa, Gas | 0.01877
342.9 K, 12107 kPa, Liquid | 0.06122
342.91 K, 302 kPa, Gas | 0.01773
343.01 K, 201 kPa, Gas | 0.01784
343.01 K, 5178 kPa, Liquid | 0.05499
343.02 K, 458 kPa, Gas | 0.0177
343.03 K, 1402 kPa, Gas | 0.01843
343.03 K, 1903 kPa, Gas | 0.01984
343.05 K, 8190 kPa, Liquid | 0.05781
343.05 K, 17151 kPa, Liquid | 0.06493
343.06 K, 1840 kPa, Gas | 0.01962
343.06 K, 1904 kPa, Gas | 0.01984
343.06 K, 21708 kPa, Liquid | 0.06763
343.1 K, 1240 kPa, Gas | 0.01819
343.12 K, 946 kPa, Gas | 0.01784
343.12 K, 1733 kPa, Gas | 0.0192
343.14 K, 1094 kPa, Gas | 0.01802
343.15 K, 102 kPa, Gas | 0.01805
343.17 K, 2093 kPa, Liquid | 0.05051
343.19 K, 810 kPa, Gas | 0.0178
343.2 K, 938 kPa, Gas | 0.0179
343.2 K, 12105 kPa, Liquid | 0.06126
343.21 K, 1570 kPa, Gas | 0.01879
343.21 K, 5176 kPa, Liquid | 0.05461
343.25 K, 17149 kPa, Liquid | 0.06474
343.25 K, 21706 kPa, Liquid | 0.06757
343.29 K, 302 kPa, Gas | 0.01776
343.29 K, 606 kPa, Gas | 0.01775
343.35 K, 1401 kPa, Gas | 0.01847
343.36 K, 8188 kPa, Liquid | 0.05795
343.39 K, 2092 kPa, Liquid | 0.05007
343.4 K, 200 kPa, Gas | 0.01785
343.41 K, 459 kPa, Gas | 0.01776
343.41 K, 12104 kPa, Liquid | 0.06108
343.43 K, 1239 kPa, Gas | 0.01822
343.48 K, 945 kPa, Gas | 0.01791
343.49 K, 1093 kPa, Gas | 0.01807
343.53 K, 5176 kPa, Liquid | 0.05477
343.55 K, 809 kPa, Gas | 0.01783
343.55 K, 937 kPa, Gas | 0.01797
343.56 K, 102 kPa, Gas | 0.01807
343.58 K, 8186 kPa, Liquid | 0.0576
343.68 K, 606 kPa, Gas | 0.0178
343.69 K, 302 kPa, Gas | 0.01781
343.72 K, 2091 kPa, Liquid | 0.05023
343.77 K, 5174 kPa, Liquid | 0.05432
343.8 K, 200 kPa, Gas | 0.0179
343.8 K, 459 kPa, Gas | 0.0178
343.99 K, 2090 kPa, Liquid | 0.05015
344 K, 103 kPa, Gas | 0.01811
344.09 K, 302 kPa, Gas | 0.01783
344.23 K, 199 kPa, Gas | 0.01797
344.46 K, 103 kPa, Gas | 0.01816

Liquid
Conditions | thermal conductivity [W/m/K]
333.15 K | 0.05329
343.15 K | 0.05091
